Results on five molecules are retold here after ChEMBL document CHEMBL5579795, “Therapeutic potential of Coumarin-polyphenolic acid hybrids in PD: Inhibition of α-Syn aggregation and disaggregation of preformed fibrils, leading to reduced neuronal inclusion formation” (Bioorg Med Chem Lett, 2024).

Structures are written as SMILES. Some results are limits rather than exact numbers.

A short description of data set [1]: Cytotoxicity against rat PC-12 cells assessed as cell viability at 100 uM measured after 24 hrs by CCK-8 assay (reference value: 100%). It is filed as toxicity, cell-based. The conditions noted are these: read-out: Activity.
The next data set deals with Alpha-synuclein (Homo sapiens, UniProt P37840). Briefly: Inhibition of alpha-Synuclein (unknown origin) aggregation assessed as aggregation inhibition ratio measured after 72 hrs by Thioflavin T based fluorescence assay.

Turning to `O=C(/C=C/c1cc(O)c(O)c(O)c1)Nc1ccc2oc(=O)ccc2c1`, the viability at 24 h, 100 µM in data set [1] was more than 90%. On to `O=C(/C=C/c1cc(O)ccc1O)Nc1ccc2oc(=O)ccc2c1`, for which the viability at 24 h, 100 µM in data set [1] was more than 90%. For `Oc1cc(O)c2c(c1)O[C@H](c1cc(O)c(O)c(O)c1)[C@H](O)C2` [EPIGALLOCATECHIN], on Alpha-synuclein, the IC50 worked out at 2580 nM.

Take `O=C(/C=C/c1cc(O)ccc1O)Nc1ccc2oc(=O)c(NC(=O)/C=C/c3cc(O)ccc3O)cc2c1`: the viability at 24 h, 100 µM in data set [1] is more than 90%. As to `O=C(Nc1ccc2oc(=O)ccc2c1)c1cc(O)ccc1O`, the viability at 24 h, 100 µM in data set [1] was more than 80%.

As usually defined, the IC50 is the point on the concentration scale where inhibition reaches its midpoint.
